Data reported in US20240408169A1 (priority 2023, published 2024).
pIC50: −log10 of the molar value. Where two headings read alike, the source gives them in different places. *1 amine or outer side, *2 acyl side, *3 side chain or, on linkers, in order; H or OH if unused. Where a SMILES comes first, the peptide text is derived from it. Bridges are numbered along the chain shown (N, C = ends). [ ]: non-standard residue; d: D form. The star is where a group is joined. ξ: configuration not given here. NMePhe(2-(4-MorPh),5-Cl) = CN[C@@H](Cc1cc(Cl)ccc1-c1ccc(N2CCOCC2)cc1)C(=O)O; X160 = CC(=O)N1CC=C(c2ccc(Cl)cc2C[C@@H](C(=O)[*:2])N(C)[*:1])C(C)(C)C1; NMeAla(5-Cl-2-cPrO-3-pyridyl) = CN[C@@H](Cc1cc(Cl)cnc1OC1CC1)C(=O)O; NMe3Pal(2-OiBu,5-Cl) = CN[C@@H](Cc1cc(Cl)cnc1OCC(C)C)C(=O)O; NMehhhLys(Me) = CN([C@@H](CCCCCCCN(C)[*:3])C(=O)[*:2])[*:1]; NMe3Pal(2-OiPr,5-Cl) = CN[C@@H](Cc1cc(Cl)cnc1OC(C)C)C(=O)O; X211 = Cc1ncc(-c2ccc(Cl)cc2C[C@@H](C(=O)[*:2])N(C)[*:1])s1; X22 = CN([C@@H](Cc1cc(Cl)ccc1-c1cnn(C)c1)C(=O)[*:2])[*:1]; NMe(hhhLys) = CN([C@@H](CCCCCCCN[*:3])C(=O)[*:2])[*:1]; X156 = CN([C@@H](Cc1cc(Cl)cc2ccccc12)C(=O)[*:2])[*:1]; X143 = CN([C@@H](Cc1cc(F)cc2cccnc12)C(=O)[*:2])[*:1]; cBuCO(3,3-F2-1-CF3) = O=C(C1(C(F)(F)F)CC(F)(F)C1)*; NMePhe(2,5-Cl2) = CN[C@@H](Cc1cc(Cl)ccc1Cl)C(=O)O; X25 = CCOc1ncc(Cl)cc1C[C@@H](C(=O)[*:2])N(C)[*:1]; X173 = CN([C@@H](Cc1cc(Cl)cs1)C(=O)[*:2])[*:1]; Pro(trans-4-F) = O=C(O)[C@@H]1C[C@@H](F)CN1; Gly(cPr) = N[C@H](C(=O)O)C1CC1; ξGly(cPr) = NC(C(=O)O)C1CC1

How the values were obtained:
CyclinB1/CDK1 = biological target: T1, CyclinB1/CDK1 (Homo sapiens, UniProt P14635); assay: Fluorescence Polarization (FP) competitive binding assay, Cyclin B1/Cdk1;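 further: fluorescence polarization read after equilibration at room temperature, with IC50 taken from serially diluted dose-response curves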
T1 construct: purchased Eurofins, discovery 14-450

CyclinE1/CDK2 = biological target: T2, CyclinE1/CDK2 (Homo sapiens, UniProt P24864); assay: Fluorescence Polarization (FP) competitive binding assay, Cyclin E1/Cdk2;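 further: readings taken after two-hour equilibration at room temperature in HEPES buffer with NaCl, DTT, NP-40 and BSA, IC50 fitted from eight-concentration serial dilution series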
T2 construct: purchased Eurofins, discovery 14-475

WI-38 cells = assay: MTT proliferation assay, WI-38; format: cell-based; settings: 3 days compound exposure, 1:3 serial dilution starting at 10 μM;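 further: Eight- or ten-point dilution series, with exposure length chosen to span about three to four cell doublings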
NCI-H1048 cells = assay: MTT proliferation assay, NCI-H1048; format: cell-based; settings: 5 days compound exposure, 1:3 serial dilution starting at 10 μM;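 further: Dose-response in 96-well plates over 8 or 10 concentration points, with exposure spanning 3-4 cell doublings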
OVCAR3 cells = assay: MTT proliferation assay, OVCAR3; format: cell-based; settings: 5 days compound exposure, 1:3 serial dilution starting at 10 μM;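 further: compound given as an 8- or 10-point series, one day after plating, with exposure covering roughly 3-4 cell doublings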
CyclinA2/CDK2 = biological target: T3, CyclinA2/CDK2 (Homo sapiens, UniProt P20248); assay: Fluorescence Polarization (FP) competitive binding assay, Cyclin A2/Cdk2; settings: 8 nM Cyclin A2/Cdk2, 2 nM FAM probe; average of 2-3 independent experiments; read-out: Cyclin A FP IC50;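 further: plates equilibrated two hours at room temperature before polarization reading, IC50 fitted from eight-concentration compound titration curves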
T3 construct: purchased CRELUX Protein Services

[1] = 10 nM Cyclin B1/Cdk1, 2 nM FAM probe; average of 2-3 independent experiments; read-out: Cyclin B FP IC50
[2] = 10 nM Cyclin E1/Cdk2, 2 nM FAM probe, average of 2-3 independent experiments, read-out: Cyclin E FP IC50
[3] = read-out: Cyclin B FP IC50; 10 nM Cyclin B1/Cdk1, 2 nM FAM probe; average of 2-3 independent experiments

Row | Structure (SMILES) | pIC50 (CyclinB1/CDK1; [1]) | pIC50 (CyclinE1/CDK2; [2]) | GI50 (WI-38 cells) [nM] | GI50 (NCI-H1048 cells) [nM] | GI50 (OVCAR3 cells) [nM] | pIC50 (CyclinA2/CDK2) | pIC50 (CyclinB1/CDK1; [3]) | pIC50 (CyclinE1/CDK2)
1 | CC(C)C[C@@H]1NC(=O)[C@@H](N(C)C(=O)[C@@H](NC(=O)[C@@H]2C[C@@H](F)CN2C(=O)C2(C(F)(F)F)CC(F)(F)C2)C2CC2)CC=CCCCCNC(=O)[C@H](Cc2cc(Cl)ccc2Cl)N(C)C1=O (single isomer, unassigned) [Example 6-P1] | 7.70 | 6.30 | 16400 | 50 | 90 |  |  | 
2 | CC(C)C[C@@H]1NC(=O)[C@@H](N(C)C(=O)[C@@H](NC(=O)[C@@H]2C[C@@H](F)CN2C(=O)C2(C(F)(F)F)CC(F)(F)C2)C2CC2)CC=CCCCCNC(=O)[C@H](Cc2cc(Cl)ccc2Cl)N(C)C1=O (single isomer, unassigned) [Example 6-P2] | 7.70 | 6.62 | 15600 | 40 | 70 |  |  | 
3 | CC(C)C[C@@H]1NC(=O)[C@@H](N(C)C(=O)[C@@H](NC(=O)[C@@H]2C[C@@H](F)CN2C(=O)C2(C(F)(F)F)CC(F)(F)C2)C2CC2)CC=CCCCCNC(=O)[C@H](Cc2cc(Cl)ccc2C2=CCN(C)CC2)N(C)C1=O (single isomer, unassigned) [Example 56-P1] | 7.40 |  | 5760 | 470 | 1020 | 6.07 |  | 
4 | CC(C)C[C@@H]1NC(=O)[C@@H](N(C)C(=O)[C@@H](NC(=O)[C@@H]2C[C@@H](F)CN2C(=O)C2(C(F)(F)F)CC(F)(F)C2)C2CC2)CC=CCCCCNC(=O)[C@H](Cc2cc(Cl)ccc2C2=CCN(C)CC2)N(C)C1=O (single isomer, unassigned) [Example 56-P2] | 7.52 |  | 3760 | 190 | 430 | 6.23 |  | 
5 | CC(=O)N1[C@H]2CC[C@@H]1C=C(c1ccc(Cl)cc1C[C@H]1C(=O)N(C)CCCCCCC[C@H](N(C)C(=O)[C@@H](NC(=O)[C@@H]3C[C@@H](F)CN3C(=O)C3(C(F)(F)F)CC(F)(F)C3)C3CC3)C(=O)N[C@@H](CC(C)C)C(=O)N1C)C2 (single isomer, unassigned) [Example 57-P1] | 7.70 | 5.85 | 13800 | 10 | 10 | 7.70 |  | 
6 | CC(=O)N1[C@H]2CC[C@@H]1C=C(c1ccc(Cl)cc1C[C@H]1C(=O)N(C)CCCCCCC[C@H](N(C)C(=O)[C@@H](NC(=O)[C@@H]3C[C@@H](F)CN3C(=O)C3(C(F)(F)F)CC(F)(F)C3)C3CC3)C(=O)N[C@@H](CC(C)C)C(=O)N1C)C2 (single isomer, unassigned) [Example 57-P2] | 7.70 | 5.88 | 16900 | 10 | 10 | 7.70 |  | 
7 | CC(C)C[C@@H]1NC(=O)[C@@H](N(C)C(=O)[C@@H](NC(=O)[C@@H]2C[C@@H](F)CN2C(=O)C2(C(F)(F)F)CC3(CCC3)C2)C2CC2)CC=CCCCCN(C)C(=O)[C@H](Cc2cc(Cl)ccc2Cl)N(C)C1=O [Example 15] | 7.70 | 5.98 | 7850 | 180 | 550 |  |  | 
8 | CC(C)C[C@@H]1NC(=O)[C@@H](N(C)C(=O)[C@@H](NC(=O)[C@@H]2C[C@@H](F)CN2C(=O)C2(C(F)(F)F)CC(F)(F)C2)C2CC2)CCCCCCCN(C)C(=O)[C@H](Cc2cc(Cl)ccc2Cl)N(C)C1=O [Example 25] ({cBuCO(3,3-F2-1-CF3)}-[Pro(trans-4-F)][Gly(cPr)][NMehhhLys(Me)]L[NMePhe(2,5-Cl2)]; lactam 3-C) | 7.70 | 6.64 | 8070 | 30 | 40 |  |  | 
9 | CC(C)C[C@@H]1NC(=O)[C@@H](N(C)C(=O)[C@@H](NC(=O)[C@@H]2C[C@@H](F)CN2C(=O)C2(C(F)(F)F)CC(F)(F)C2)C2CC2)CCCCCCCNC(=O)[C@H](Cc2cc(Cl)ccc2-c2cnn(C)c2)N(C)C1=O [Example 66] ({cBuCO(3,3-F2-1-CF3)}-[Pro(trans-4-F)][Gly(cPr)][NMe(hhhLys)]L[X22]; lactam 3-C) |  |  | 12900 | 10 | 10 |  |  | 
10 | Cc1ncc(-c2ccc(Cl)cc2C[C@H]2C(=O)N(C)CCCCCCC[C@H](N(C)C(=O)[C@@H](NC(=O)[C@@H]3C[C@@H](F)CN3C(=O)C3(C(F)(F)F)CC(F)(F)C3)C3CC3)C(=O)N[C@@H](CC(C)C)C(=O)N2C)s1 [Example 75] ({cBuCO(3,3-F2-1-CF3)}-[Pro(trans-4-F)][Gly(cPr)][NMehhhLys(Me)]L[X211]; lactam 3-C) | 7.70 | 6.36 | 5890 | 10 | 20 |  |  | 
11 | CC(C)C[C@@H]1NC(=O)[C@@H](N(C)C(=O)[C@@H](NC(=O)[C@@H]2C[C@@H](F)CN2C(=O)C2(C(F)(F)F)CC(F)(F)C2)C2CC2)CCCCCCCN(C)C(=O)[C@H](Cc2cc(Cl)cnc2OC2CC2)N(C)C1=O [Example 105] ({cBuCO(3,3-F2-1-CF3)}-[Pro(trans-4-F)][Gly(cPr)][NMehhhLys(Me)]L[NMeAla(5-Cl-2-cPrO-3-pyridyl)]; lactam 3-C) |  |  | 18800 | 20 | 30 |  |  | 
12 | CC(C)C[C@@H]1NC(=O)[C@@H](N(C)C(=O)[C@@H](NC(=O)[C@@H]2C[C@@H](F)CN2C(=O)C2(C(F)(F)F)CC(F)(F)C2)C2CC2)CCCCCCCN(C)C(=O)[C@H](Cc2cc(Cl)cnc2OC(C)C)N(C)C1=O [Example 120] ({cBuCO(3,3-F2-1-CF3)}-[Pro(trans-4-F)][Gly(cPr)][NMehhhLys(Me)]L[NMe3Pal(2-OiPr,5-Cl)]; lactam 3-C) | 7.70 | 6.68 | 9280 | 100 | 130 |  |  | 
13 | CCOc1ncc(Cl)cc1C[C@H]1C(=O)N(C)CCCCCCC[C@H](N(C)C(=O)[C@@H](NC(=O)[C@@H]2C[C@@H](F)CN2C(=O)C2(C(F)(F)F)CC(F)(F)C2)C2CC2)C(=O)N[C@@H](CC(C)C)C(=O)N1C [Example 225] ({cBuCO(3,3-F2-1-CF3)}-[Pro(trans-4-F)][Gly(cPr)][NMehhhLys(Me)]L[X25]; lactam 3-C) |  |  | 8530 | 20 | 30 |  | 7.70 | 6.72
14 | CC(C)COc1ncc(Cl)cc1C[C@H]1C(=O)N(C)CCCCCCC[C@H](N(C)C(=O)[C@@H](NC(=O)[C@@H]2C[C@@H](F)CN2C(=O)C2(C(F)(F)F)CC(F)(F)C2)C2CC2)C(=O)N[C@@H](CC(C)C)C(=O)N1C [Example 228] ({cBuCO(3,3-F2-1-CF3)}-[Pro(trans-4-F)][Gly(cPr)][NMehhhLys(Me)]L[NMe3Pal(2-OiBu,5-Cl)]; lactam 3-C) |  |  | 9540 | 60 | 80 |  | 7.70 | 6.60
15 | CC(=O)N1CC=C(c2ccc(Cl)cc2C[C@H]2C(=O)NCCCCCCC[C@H](N(C)C(=O)C(NC(=O)[C@@H]3C[C@@H](F)CN3C(=O)C3(C(F)(F)F)CC(F)(F)C3)C3CC3)C(=O)N[C@@H](CC(C)C)C(=O)N2C)C(C)(C)C1 (stereo partly drawn) [Example 277] ({cBuCO(3,3-F2-1-CF3)}-[Pro(trans-4-F)][ξGly(cPr)][NMe(hhhLys)]L[X160]; lactam 3-C) | 7.70 |  | 3820 | 330 | 360 | 6.22 |  | 
16 | CC(C)C[C@@H]1NC(=O)[C@@H](N(C)C(=O)[C@H](CCC(=O)O)NC(=O)[C@@H]2C[C@@H](F)CN2C(=O)C2(C(F)(F)F)CC(F)(F)C2)CCCCCCCN(C)C(=O)[C@H](Cc2cc(Cl)ccc2-c2ccc(N3CCOCC3)cc2)N(C)C1=O [Example 418] ({cBuCO(3,3-F2-1-CF3)}-[Pro(trans-4-F)]E[NMehhhLys(Me)]L[NMePhe(2-(4-MorPh),5-Cl)]; lactam 3-C) | 7.70 | 5.28 |  | 1420 | 1150 | 6.92 |  | 
17 | CC(C)C[C@@H]1NC(=O)[C@@H](N(C)C(=O)[C@@H](NC(=O)[C@@H]2C[C@@H](F)CN2C(=O)C2(C(F)(F)F)CC(F)(F)C2)C2CC2)CCCCCCCN(C)C(=O)[C@H](Cc2cc(F)cc3cccnc23)N(C)C1=O [Example 423] ({cBuCO(3,3-F2-1-CF3)}-[Pro(trans-4-F)][Gly(cPr)][NMehhhLys(Me)]L[X143]; lactam 3-C) | 7.70 | 6.15 |  | 200 | 70 | 6.14 |  | 
18 | CC(C)C[C@@H]1NC(=O)[C@@H](N(C)C(=O)[C@@H](NC(=O)[C@@H]2C[C@@H](F)CN2C(=O)C2(C(F)(F)F)CC(F)(F)C2)C2CC2)CCCCCCCN(C)C(=O)[C@H](Cc2cc(Cl)cc3ccccc23)N(C)C1=O [Example 425] ({cBuCO(3,3-F2-1-CF3)}-[Pro(trans-4-F)][Gly(cPr)][NMehhhLys(Me)]L[X156]; lactam 3-C) | 7.70 | 6.68 |  | 160 | 240 | 6.82 |  | 
19 | CC(C)C[C@@H]1NC(=O)[C@@H](N(C)C(=O)[C@@H](NC(=O)[C@@H]2C[C@@H](F)CN2C(=O)C2(C(F)(F)F)CC(F)(F)C2)C2CC2)CCCCCCCN(C)C(=O)[C@H](Cc2cc(Cl)cs2)N(C)C1=O [Example 426] ({cBuCO(3,3-F2-1-CF3)}-[Pro(trans-4-F)][Gly(cPr)][NMehhhLys(Me)]L[X173]; lactam 3-C) | 7.70 | 5.69 |  | 90 | 150 | 6.96 |  | 
